The source of these data is ChEMBL document CHEMBL4184139, “Adamantyl- and other polycyclic cage-based conjugates of desferrioxamine B (DFOB) for treating iron-mediated toxicity in cell models of Parkinson's disease” (Bioorg Med Chem Lett, 2017).

As usually defined, the logP is the decadic logarithm of the partition coefficient of the neutral form, usually between octanol and water. Read a low logP as lower lipophilicity.

A short description of series [1]: Octanol-water partition coefficient, log P of the compound at 1 mg by RP-HPLC analysis. The format is physicochemical.
The test system of series [2] is SK-N-BE(2)-M17. The series is described as follows: Cytoprotection against PQ-induced cell death in human SK-N-BE(2)-M17 cells assessed as increase in cell viability at 100 uM pretreated for 2 hrs followed by 1 mM PQ addition measured after 24 hrs by MTT assay. The format is functional, cell-based. For orientation: Tetrazolium assays rely on reduction of a dye to a coloured formazan, in cell work by metabolically active cells.

Series [3] concerns SK-N-BE(2)-M17. Nature of the series: Cytoprotection against PQ-induced cell death in human SK-N-BE(2)-M17 cells assessed as increase in cell viability at 100 uM pretreated for 2 hrs followed by 1 mM PQ addition measured after 24 hrs by LDH assay. The series is classed as functional, cell-based.
Series [4] deals with SK-N-BE(2)-M17. The series is described as follows: Cytoprotection against H2O2-induced cell death in human SK-N-BE(2)-M17 cells assessed as increase in cell viability at 100 uM pretreated for 2 hrs followed by 1 mM H2O2 addition measured after 24 hrs by MTT assay. The format is functional, cell-based.
Series [5] has as its system SK-N-BE(2)-M17. Nature of the series: Cytoprotection against H2O2-induced cell death in human SK-N-BE(2)-M17 cells assessed as increase in cell viability at 100 uM pretreated for 2 hrs followed by 1 mM H2O2 addition measured after 24 hrs by LDH assay. The series is classed as functional, cell-based.
Series [6] relates to SK-N-BE(2)-M17. The series is described as follows: Cytoprotection against PQ-induced cell death in human SK-N-BE(2)-M17 cells assessed as increase in cell viability at 100 uM treated 2 hrs post 2 mM PQ treatment measured after 24 hrs by MTT assay. The series is classed as functional, cell-based.
Series [7] has as its system SK-N-BE(2)-M17. Nature of the series: Cytoprotection against PQ-induced cell death in human SK-N-BE(2)-M17 cells assessed as increase in cell viability at 100 uM treated 2 hrs post 2 mM PQ treatment measured after 24 hrs by LDH assay. The series is classed as functional, cell-based.
Series [8] has as its system SK-N-BE(2)-M17. The series is described as follows: Cytoprotection against H2O2-induced cell death in human SK-N-BE(2)-M17 cells assessed as increase in cell viability at 100 uM treated 2 hrs post 0.8 mM H2O2 treatment measured after 24 hrs by MTT assay. The series is classed as functional, cell-based.
The subject of series [9] is SK-N-BE(2)-M17. The series is described as follows: Cytoprotection against H2O2-induced cell death in human SK-N-BE(2)-M17 cells assessed as increase in cell viability at 100 uM treated 2 hrs post 0.8 mM H2O2 treatment measured after 24 hrs by LDH assay. The format is functional, cell-based.
Series [10] deals with SK-N-BE(2)-M17. Nature of the series: Cytotoxicity against human SK-N-BE(2)-M17 cells at 100 uM 24 hrs by MTT assay. The series is classed as cell-based. The following applies: sk-n-be(2)-m17, 24 h.
Series [11] deals with SK-N-BE(2)-M17. Nature of the series: Cytotoxicity against human SK-N-BE(2)-M17 cells at 100 uM 24 hrs by LDH release assay. The format is cell-based. Conditions: sk-n-be(2)-m17, 24 h. (Release of lactate dehydrogenase indicates damage to the cell membrane.)
The nature of series [12]: Binding affinity to Fe3+ assessed as [M+H]+ adduct formation by LC-MS/MS analysis.
Series [13] in a line: Binding affinity to Fe3+ assessed as [M+2H]+ adduct formation by LC-MS/MS analysis.
A short description of series [14]: Binding affinity to Fe3+ assessed as change in retention time for compound-Fe3+ complex by RP-HPLC analysis relative to free ligand.
Another series relates to Astrocyte. The series is described as follows: Cytoprotection against H2O2-induced cell death in BSO pretreated C57BL6/J mouse brain primary astrocytes assessed as increase in cell viability at 10 uM pretreated for 2 hrs followed by H2O2 addition measured after 24 hrs by MTT assay. The series is classed as functional, cell-based.

Activity calls are given as the source filed them. The rule behind the calls is not given here.

In the case of `CC(=O)N(O)CCCCCNC(=O)CCC(=O)N(O)CCCCCNC(=O)CCC(=O)N(O)CCCCCNC(=O)C[C@H]1C[C@H]2CC[C@H]1C2` (relative stereo), in [1], the logP came out at 1.16. Further, the result in the series on SK-N-BE(2)-M17 [2], in the series on SK-N-BE(2)-M17 [3], with SK-N-BE(2)-M17 [4], in the series with SK-N-BE(2)-M17 [5], in the series on SK-N-BE(2)-M17 [6] and in the series on SK-N-BE(2)-M17 [7] was Active. Moreover, the result (with SK-N-BE(2)-M17 [8]; in the series with SK-N-BE(2)-M17 [9]; in series [12]; in series [13]) was Active. In addition, the Activity result in the series with SK-N-BE(2)-M17 [10] and with SK-N-BE(2)-M17 [11] was “Non-Toxic” in each case. Moreover, the Retention time in series [14] is 0.27 min.

`CC(=O)N(O)CCCCCNC(=O)CCC(=O)N(O)CCCCCNC(=O)CCC(=O)N(O)CCCCCNC(=O)C12CC3CC(CC(Br)(C3)C1)C2`: the logP in series [1] is 1.9. For the same compound, the outcome with SK-N-BE(2)-M17 [2], with SK-N-BE(2)-M17 [3], in the series with SK-N-BE(2)-M17 [4], in the series with SK-N-BE(2)-M17 [5], in the series on SK-N-BE(2)-M17 [6] and in the series with SK-N-BE(2)-M17 [7] was inactive. For the same compound, the result with SK-N-BE(2)-M17 [8] and with SK-N-BE(2)-M17 [9] was inactive. For the same compound, the result (in the series with Astrocyte; in series [12]; in [13]) was Active. Also, the Activity result with SK-N-BE(2)-M17 [10] and with SK-N-BE(2)-M17 [11] was “Non-Toxic” each time. Besides, in series [14], the Retention time turned out to be 0.91 min.

For the compound `COC(=O)c1ccccc1C(=O)OC` [DIMETHYL PHTHALATE], the logP in series [1] was found to be 1.59.

In series [1], `CC(=O)N(O)CCCCCNC(=O)CCC(=O)N(O)CCCCCNC(=O)CCC(=O)N(O)CCCCCNC(=O)CC12CC3CC(CC(O)(C3)C1)C2` showed a logP of 0.15. Besides, the outcome (in the series with SK-N-BE(2)-M17 [2]; in the series with SK-N-BE(2)-M17 [3]; with SK-N-BE(2)-M17 [4]; with SK-N-BE(2)-M17 [5]; in [12]; in series [13]) was Active. For the same compound, the Activity entry in the series on SK-N-BE(2)-M17 [10] and in the series on SK-N-BE(2)-M17 [11] was “Non-Toxic” throughout. In addition, in series [14], the Retention time is -0.52 min.

In series [1], `c1ccc2ccccc2c1` yielded a logP of 3.27.

In series [1], `c1ccc2c(c1)oc1ccccc12` [DIBENZOFURAN] yielded a logP of 3.76.

Compound `CC(=O)N(O)CCCCCNC(=O)CCC(=O)N(O)CCCCCNC(=O)CCC(=O)N(O)CCCCCNC(=O)CC12CC3CC(CC(Br)(C3)C1)C2` registered a logP in [1] of 1.84. Moreover, the outcome in the series with SK-N-BE(2)-M17 [2], in the series on SK-N-BE(2)-M17 [3], with SK-N-BE(2)-M17 [4], with SK-N-BE(2)-M17 [5], in the series on SK-N-BE(2)-M17 [6] and in the series with SK-N-BE(2)-M17 [7] was inactive. The result in the series on SK-N-BE(2)-M17 [8] and with SK-N-BE(2)-M17 [9] was inactive. The Activity result in the series on SK-N-BE(2)-M17 [10] and in the series on SK-N-BE(2)-M17 [11] was “Non-Toxic” throughout. For the same compound, the result in [12] and in series [13] was Active. Besides, the Retention time in [14] came to 1.09 min.
